The results in this text go back to article PMC11308618, “Determinants of interactions of a novel next-generation gabapentinoid NVA1309 and mirogabalin with the Cavα2δ-1 subunit” (Molecular Brain, 2024).

The test system of experiment [1] is T1, Cavα2δ-1.
T1 construct: gene CACNA2D1; chemically synthesized peptide surrounding the K615 locus ([…]; peptide P3)
Briefly: SPR (Biacore) on immobilized peptide; also […] lowers Cav2.[…] current in tsA201 cells, lost with R243A or K615A Cavα[…]δ-1. The class given is binding, Oryctolagus cuniculus. For orientation: In SPR one partner is held on a chip, and binding of the other changes the refractive index at the surface.

Experiment [2] has as its target T1, Cavα2δ-1. The experiment is described as follows: SPR (Biacore) on immobilized peptide. The class given is binding, Oryctolagus cuniculus.

Usually Kd stands for a measure of binding affinity in units of concentration. A lower Kd goes with a tighter complex. The compound `CCC1=C[C@@H]2[C@H](C1)C[C@]2(CN)CC(=O)O` [mirogabalin] displayed a dissociation constant Kd with Cavα2δ-1 [1] of 161 ± 60 µM.

`CCC1=C[C@@H]2[C@H](C1)C[C@]2(CN)Cc1nnn[nH]1` [NVA1309] displayed a dissociation constant Kd at Cavα2δ-1 [2] of 273 ± 101 µM.
